Laboratory results from the supplement of paper PMC8612539.
≈ marks a conversion by molar mass, not a printed value.

Tested on: Histophilus somni
Assay: minimum inhibitory concentration (MIC)
Protocol: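 Broth microdilution MIC (Sensititre BOPO7F bovine plate, CLSI methods) of 19 antimicrobials against field isolates of P. multocida, M. haemolytica, H. somni (deep nasopharyngeal swabs) and E. coli, Enterococcus spp. (rectal swabs) from weaned dairy heifers. Incubation 16-24 h at 35 C. MIC is the lowest concentration preventing visible growth. Values with <= or > lie at the tested range limits. Trimethoprim-sulfamethoxazole is given as the trimethoprim component of a 1:19 mixture.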

CC1(C)S[C@@H]2[C@H](NC(=O)[C@H](N)c3ccccc3)C(=O)N2[C@H]1C(=O)O [Ampicillin]
Conditions | minimum inhibitory concentration [µg/mL]
isolate (source animal id): 3 | ≤ 0.25
isolate (source animal id): 4 | 0.5 (≈ 1.43 µM)
isolate (source animal id): 7 | ≤ 0.25
isolate (source animal id): 14 | ≤ 0.25
isolate (source animal id): 15 | ≤ 0.25
isolate (source animal id): 17 | ≤ 0.25
isolate (source animal id): 18 | ≤ 0.25
isolate (source animal id): 20 | ≤ 0.25
isolate (source animal id): 23 | ≤ 0.25
isolate (source animal id): 45 | ≤ 0.25
isolate (source animal id): 53 | ≤ 0.25
isolate (source animal id): 83 | ≤ 0.25
isolate (source animal id): 88 | ≤ 0.25
isolate (source animal id): 92 | ≤ 0.25
isolate (source animal id): 93 | ≤ 0.25
isolate (source animal id): 99 | ≤ 0.25
isolate (source animal id): 100 | ≤ 0.25
isolate (source animal id): 105 | ≤ 0.25
isolate (source animal id): 107 | ≤ 0.25
isolate (source animal id): 108 | ≤ 0.25
isolate (source animal id): 109 | ≤ 0.25
isolate (source animal id): 110 | ≤ 0.25
isolate (source animal id): 117 | ≤ 0.25
isolate (source animal id): 121 | ≤ 0.25
isolate (source animal id): 123 | ≤ 0.25
isolate (source animal id): 124 | ≤ 0.25
isolate (source animal id): 127 | ≤ 0.25
isolate (source animal id): 128 | ≤ 0.25
isolate (source animal id): 130 | > 16
isolate (source animal id): 132 | ≤ 0.25
isolate (source animal id): 135 | ≤ 0.25
isolate (source animal id): 140 | ≤ 0.25
isolate (source animal id): 141 | ≤ 0.25
isolate (source animal id): 142 | ≤ 0.25
isolate (source animal id): 144 | ≤ 0.25
isolate (source animal id): 146 | ≤ 0.25
isolate (source animal id): 147 | ≤ 0.25
isolate (source animal id): 151 | ≤ 0.25
isolate (source animal id): 153 | ≤ 0.25
isolate (source animal id): 154 | ≤ 0.25
isolate (source animal id): 156 | ≤ 0.25
isolate (source animal id): 157 | ≤ 0.25
isolate (source animal id): 176 | ≤ 0.25
isolate (source animal id): 183 | ≤ 0.25
isolate (source animal id): 186 | ≤ 0.25
isolate (source animal id): 196 | ≤ 0.25
isolate (source animal id): 198 | ≤ 0.25
isolate (source animal id): 200 | ≤ 0.25
isolate (source animal id): 206 | ≤ 0.25
isolate (source animal id): 208 | ≤ 0.25
isolate (source animal id): 210 | ≤ 0.25
isolate (source animal id): 212 | ≤ 0.25
isolate (source animal id): 215 | ≤ 0.25
isolate (source animal id): 216 | ≤ 0.25
isolate (source animal id): 218 | ≤ 0.25
isolate (source animal id): 219 | ≤ 0.25
isolate (source animal id): 224 | ≤ 0.25
isolate (source animal id): 228 | ≤ 0.25
isolate (source animal id): 230 | ≤ 0.25
isolate (source animal id): 233 | ≤ 0.25
isolate (source animal id): 238 | ≤ 0.25
isolate (source animal id): 239 | ≤ 0.25
isolate (source animal id): 241 | ≤ 0.25
isolate (source animal id): 242 | ≤ 0.25
isolate (source animal id): 243 | ≤ 0.25
isolate (source animal id): 245 | ≤ 0.25
isolate (source animal id): 246 | ≤ 0.25
isolate (source animal id): 247 | ≤ 0.25
isolate (source animal id): 248 | ≤ 0.25
isolate (source animal id): 250 | ≤ 0.25
isolate (source animal id): 251 | ≤ 0.25
isolate (source animal id): 252 | ≤ 0.25
isolate (source animal id): 254 | ≤ 0.25
isolate (source animal id): 258 | ≤ 0.25
isolate (source animal id): 259 | ≤ 0.25
isolate (source animal id): 262 | ≤ 0.25
isolate (source animal id): 264 | ≤ 0.25
isolate (source animal id): 265 | 4 (≈ 11.4 µM)
isolate (source animal id): 266 | ≤ 0.25
isolate (source animal id): 267 | ≤ 0.25
isolate (source animal id): 269 | ≤ 0.25
isolate (source animal id): 271 | ≤ 0.25
isolate (source animal id): 272 | 4 (≈ 11.4 µM)
isolate (source animal id): 274 | ≤ 0.25
isolate (source animal id): 276 | ≤ 0.25
isolate (source animal id): 278 | ≤ 0.25
isolate (source animal id): 280 | 1 (≈ 2.86 µM)
isolate (source animal id): 281 | ≤ 0.25
isolate (source animal id): 283 | ≤ 0.25
isolate (source animal id): 288 | ≤ 0.25
isolate (source animal id): 291 | ≤ 0.25
isolate (source animal id): 292 | ≤ 0.25
isolate (source animal id): 296 | ≤ 0.25
isolate (source animal id): 306 | ≤ 0.25
isolate (source animal id): 336 | ≤ 0.25
isolate (source animal id): 337 | ≤ 0.25
isolate (source animal id): 341 | ≤ 0.25
